In assay [1] the target is T1, Prostaglandin G/H synthase 1 (Ovis aries, UniProt P05979).
T1 sequence (P05979 whole entry): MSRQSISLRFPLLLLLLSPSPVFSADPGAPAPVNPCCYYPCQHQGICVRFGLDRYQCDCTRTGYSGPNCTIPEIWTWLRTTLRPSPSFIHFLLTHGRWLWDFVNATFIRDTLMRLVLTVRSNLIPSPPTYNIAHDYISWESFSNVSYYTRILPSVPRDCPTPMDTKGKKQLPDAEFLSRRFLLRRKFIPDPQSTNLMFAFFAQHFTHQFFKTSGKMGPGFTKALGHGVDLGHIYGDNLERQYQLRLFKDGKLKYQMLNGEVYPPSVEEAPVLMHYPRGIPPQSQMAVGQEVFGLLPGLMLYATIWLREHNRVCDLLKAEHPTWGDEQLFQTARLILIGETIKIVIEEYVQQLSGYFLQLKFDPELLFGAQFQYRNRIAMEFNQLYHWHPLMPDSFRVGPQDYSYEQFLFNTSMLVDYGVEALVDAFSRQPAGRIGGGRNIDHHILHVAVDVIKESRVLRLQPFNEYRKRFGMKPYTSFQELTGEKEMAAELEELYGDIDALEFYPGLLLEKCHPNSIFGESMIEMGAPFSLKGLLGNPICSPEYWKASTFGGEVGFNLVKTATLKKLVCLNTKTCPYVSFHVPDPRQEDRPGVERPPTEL
Kind of assay: Inhibition of sheep COX1 measured by oxygen consumption.

In assay [2] the target is T2, Prostaglandin G/H synthase 1 (Ovis aries) (UniProt P05979).
T2 sequence (whole entry): T1 sequence (P05979 whole entry)
Kind of assay: Inhibition of sheep COX1 measured by oxygen consumption at 100 uM.

From ChEMBL document CHEMBL1151272, “Anti-inflammatory acylphloroglucinol derivatives from Hops (Humulus lupulus)” (J Nat Prod, 2005) come the findings set out here.

As to `Oc1cc(O)cc(O)c1` [PHLOROGLUCINOL], the AC50 result in assay [1] was “Active”.

As for `CC(C)CC(=O)c1c(O)cc(O)cc1O[C@@H]1O[C@H](CO)[C@@H](O)[C@H](O)[C@H]1O`, in assay [2], the inhibition (commonly the drop in the measured response relative to a control, in per cent) worked out at 12%.

As for `CC(C)C(=O)c1c(O)cc(O[C@@H]2O[C@H](CO)[C@@H](O)[C@H](O)[C@H]2O)cc1O`, the IC50 (commonly the point on the concentration scale where inhibition reaches its midpoint) in assay [1] came to 58.7 µM.

`CC(C)C(=O)c1c(O)cc(O)cc1O[C@@H]1O[C@H](CO)[C@@H](O)[C@H](O)[C@H]1O`: in assay [1], half-maximal inhibition (IC50) required 23.7 µM.

In assay [1], `CC(C)C(=O)c1c(O)cc(O)cc1O` [PHLOROISOBUTYROPHENONE] returned an IC50 of 3.8 µM.

Consider `CCC(C)C(=O)c1c(O)cc(O)cc1O[C@@H]1O[C@H](CO)[C@@H](O)[C@H](O)[C@H]1O` (stereo partly specified), for which it took 131 µM to reach half-maximal inhibition in assay [1] (IC50).
